From patent US20220267260A1, “COMPOUNDS CONTAINING A SULFONIC GROUP AS KAT INHIBITORS” (Epizyme, Inc., priority 2016, published 2022)

Legend:
KAT5 = target: T1, KAT5 (Homo sapiens, UniProt Q92993); assay: KAT5 enzyme inhibition assay (SAMDI mass spectrometry); assay type: biochemical; details: His-TEV-FL KAT5-Flag enzyme construct
T1 construct: His-TEV tag (N, cleaved yes); made in house

KAT6A = target: T2, KAT6A (Homo sapiens, UniProt Q92794); assay: KAT6A enzyme inhibition assay (SAMDI mass spectrometry); assay type: biochemical; details: His-TEV-KAT6A 501-784 enzyme construct
T2 construct: His-TEV tag (N, cleaved yes); made in house
T2 sequence (Q92794 with tags, fused parts or gaps): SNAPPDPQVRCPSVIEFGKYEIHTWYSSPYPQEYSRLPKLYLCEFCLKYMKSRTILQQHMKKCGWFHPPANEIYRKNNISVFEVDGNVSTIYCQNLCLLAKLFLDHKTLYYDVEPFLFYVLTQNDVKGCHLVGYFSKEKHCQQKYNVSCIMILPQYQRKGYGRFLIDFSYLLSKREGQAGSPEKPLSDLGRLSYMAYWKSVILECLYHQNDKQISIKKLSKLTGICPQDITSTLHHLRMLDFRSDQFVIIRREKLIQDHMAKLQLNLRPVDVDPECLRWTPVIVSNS

T1 sequence (Q92993 with tags, fused parts or gaps): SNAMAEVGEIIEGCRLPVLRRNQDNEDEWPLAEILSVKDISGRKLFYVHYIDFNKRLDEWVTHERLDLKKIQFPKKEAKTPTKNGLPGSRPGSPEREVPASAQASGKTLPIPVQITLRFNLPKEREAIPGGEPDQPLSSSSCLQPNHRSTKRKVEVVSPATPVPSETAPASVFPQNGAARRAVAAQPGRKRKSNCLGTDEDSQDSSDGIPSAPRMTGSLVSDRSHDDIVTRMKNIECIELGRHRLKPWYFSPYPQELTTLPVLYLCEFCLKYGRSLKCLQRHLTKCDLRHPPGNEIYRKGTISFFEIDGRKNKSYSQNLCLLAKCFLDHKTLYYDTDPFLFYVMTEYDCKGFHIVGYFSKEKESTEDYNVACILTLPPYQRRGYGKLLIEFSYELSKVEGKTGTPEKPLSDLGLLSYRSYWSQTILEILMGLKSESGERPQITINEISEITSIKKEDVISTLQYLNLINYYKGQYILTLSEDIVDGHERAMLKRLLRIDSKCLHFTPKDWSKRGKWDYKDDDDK

Structure (SMILES)	IC50 (KAT5) [µM]	IC50 (KAT6A) [µM]
Cc1cc(-c2cccc(F)c2)cc(C(=O)NNS(=O)(=O)CC2CCN(C(=O)OC(C)(C)C)CC2)c1F [Compound I-359]	≤ 10	≤ 10
O=C(NNS(=O)(=O)C1CCCCC1)c1cc(-c2ccccc2)ccc1F [Compound I-360]	10 to 50	10 to 50
Cc1c(-c2ccccc2)ccc(F)c1C(=O)NNS(=O)(=O)Cc1ccccc1 [Compound I-361]	50 to 100	> 100
Cc1cc(-c2cccc(F)c2F)cc(C(=O)NNS(=O)(=O)c2ccccc2)c1F [Compound I-362]	≤ 10	≤ 10
Cc1c(C(=O)NNS(=O)(=O)C2CCCCC2)cccc1-c1ccccc1 [Compound I-363]	> 100	> 100
O=C(NNS(=O)(=O)C1CCCCC1)c1c(F)ccc(-c2ccccc2)c1F [Compound I-364]	50 to 100	50 to 100
Cc1cc(-c2cccc(OCCN(C)C)c2)cc(C(=O)NNS(=O)(=O)CC2CCCCC2)c1F [Compound I-365]	50 to 100	> 100
Cc1cc(-c2cccc(Cl)c2F)cc(C(=O)NNS(=O)(=O)CC2CCCCC2)c1F [Compound I-366]	10 to 50	50 to 100
Cc1cc(-c2ccccc2)cc(C(=O)NCc2noc3ccccc23)c1F [Compound I-368]	50 to 100	50 to 100
Cc1cc(-c2ccccc2)cc(C(=O)NNS(=O)(=O)CC2CCCN(C(=O)C(C)C)C2)c1F (stereo not shown) [Compound I-369]	≤ 10	≤ 10
COc1ccccc1-c1cc(C)c(F)c(C(=O)NNS(=O)(=O)CC2CCCCC2)c1 [Compound I-370]	10 to 50	> 100
Cc1cc(-c2cccc(F)c2)cc(C(=O)NNS(=O)(=O)c2ccccc2)c1F [Compound I-371]	≤ 10	≤ 10
CCC(=O)N1CCCC(CS(=O)(=O)NNC(=O)c2cc(-c3cccc(F)c3)cc(C)c2F)C1 (stereo not shown) [Compound I-372]	≤ 10	≤ 10
CCc1cccc(-c2cc(C)c(F)c(C(=O)NNS(=O)(=O)CC3CCCCC3)c2)c1 [Compound I-373]	50 to 100	50 to 100
Cc1cc(-c2cccc(C(=O)N(C)C)c2)cc(C(=O)NNS(=O)(=O)CC2CCCCC2)c1F [Compound I-374]	10 to 50	10 to 50
O=C(NNS(=O)(=O)C1CCCCC1)c1cc(-c2ccccc2)cc2[nH]cnc12 [Compound I-375]	50 to 100	50 to 100

Structure (SMILES)	IC50 (KAT5) [µM]	IC50 (KAT6A) [µM]
Cc1cc(-c2cccc(Cl)c2F)cc(C(=O)NNS(=O)(=O)C2CCCCC2)c1F [Compound I-376]	10 to 50	10 to 50
Cc1cc(-c2cccc(F)c2)cc(C(=O)NNS(=O)(=O)C2CCOCC2)c1F [Compound I-377]	≤ 10	≤ 10
Cc1cc(-c2cccc(C(=O)N(C)C)c2)cc(C(=O)NNS(=O)(=O)C2CCCCC2)c1F [Compound I-378]	50 to 100	> 100
Cc1cc(-c2ccccc2)cc(C(=O)NNS(=O)(=O)CC2CCCN(C(=O)CCN(C)C(=O)OC(C)(C)C)C2)c1F (stereo not shown) [Compound I-379]	≤ 10	≤ 10
Cc1cc(-c2cccc(F)c2F)cc(C(=O)NNS(=O)(=O)CC2CCCCC2)c1F [Compound I-380]	> 100	50 to 100
Cc1cc(-c2cccc(F)c2F)cc(C(=O)NNS(=O)(=O)C2CCCCC2)c1F [Compound I-381]	≤ 10	10 to 50
Cc1cc(-c2ccccc2)cc(C(=O)NNS(=O)(=O)C(C)C2CCNCC2)c1F (stereo not shown) [Compound I-382]	50 to 100	50 to 100
Cc1cc(-c2ccccc2)cc(C(=O)NNS(=O)(=O)c2cccc(C(N)=O)c2)c1F [Compound I-383]	≤ 10	≤ 10
Cc1cc(-c2ccc(C(C)C)cc2)cc(C(=O)NNS(=O)(=O)c2ccccc2)c1F [Compound I-384]	> 100	≤ 10
Cc1cc(-c2ccccc2)cc(C(=O)NNS(=O)(=O)C(C)C2CCCCC2)c1F (stereo not shown) [Compound I-385]	≤ 10	≤ 10
Cc1cc(-c2cccc(OCCN(C)C)c2)cc(C(=O)NNS(=O)(=O)c2ccccc2)c1F [Compound I-386]	> 100	10 to 50
Cc1c(-c2ccccc2)ccc(F)c1C(=O)NCC(=O)NC(Cc1ccccc1)C(C)C (stereo not shown) [Compound I-387]	> 100	> 100
CC(=O)N1CCC(CS(=O)(=O)NNC(=O)c2cc(-c3cccc(F)c3)cc(C)c2F)CC1 [Compound I-388]	≤ 10	≤ 10
CNCCC(=O)N1CCC(CS(=O)(=O)NNC(=O)c2cc(-c3cccc(F)c3)cc(C)c2F)CC1 [Compound I-389]	10 to 50	10 to 50
O=C(NNS(=O)(=O)C1CCCCC1)c1cc(-c2ccccc2F)cc(Cl)c1F [Compound I-390]	≤ 10	≤ 10
COc1cc(C)c(F)c(C(=O)NNS(=O)(=O)C2CCCCC2)c1 [Compound I-391]	≤ 10	> 100

The next lines start with the values.

IC50 (KAT5) [µM]	IC50 (KAT6A) [µM]	Structure (SMILES)
≤ 10	10 to 50	O=C(NNS(=O)(=O)C1CCCCC1)c1cc(-c2cc(F)cc(F)c2)cc(Cl)c1F [Compound I-392]
≤ 10	> 100	COc1cc(Cl)c(F)c(C(=O)NNS(=O)(=O)C2CCCCC2)c1 [Compound I-393]
≤ 10	10 to 50	COc1cc(Cl)c(F)c(C(=O)NNS(=O)(=O)CC2CCCCC2)c1 [Compound I-394]
≤ 10	≤ 10	O=C(NNS(=O)(=O)C1CCCCC1)c1cc(-c2cccc(F)c2)cc(Cl)c1F [Compound I-395]
≤ 10	≤ 10	CC(C)(C)OC(=O)N1CCCC(CS(=O)(=O)NNC(=O)c2cc(-c3cccc(F)c3)cc(Cl)c2F)C1 (stereo not shown) [Compound I-396]
≤ 10	≤ 10	O=C(NNS(=O)(=O)CC1CCOCC1)c1cc(-c2cccc(F)c2)cc(Cl)c1F [Compound I-397]
50 to 100	10 to 50	Cc1cc(-c2cccc(F)c2Cl)cc(C(=O)NNS(=O)(=O)CC2CCCCC2)c1F [Compound I-398]
50 to 100	50 to 100	Cc1cc(-c2cccc(F)c2Cl)cc(C(=O)NNS(=O)(=O)C2CCCCC2)c1F [Compound I-399]
≤ 10	≤ 10	O=C(NNS(=O)(=O)CC1CCOCC1)c1cc(-c2ccccc2)cc(Cl)c1F [Compound I-400]
≤ 10	≤ 10	CC(C)(C)OC(=O)N1CCCC(CS(=O)(=O)NNC(=O)c2cc(-c3ccccc3)cc(Cl)c2F)C1 (stereo not shown) [Compound I-401]
> 100	> 100	Cn1cnc2cc(-c3ccccc3)c(F)c(C(=O)NNS(=O)(=O)C3CCCCC3)c21 [Compound I-402]
> 100	> 100	Cc1cc(-c2cccc(OCCN(C)C)c2)cc(C(=O)NNS(=O)(=O)C2CCCCC2)c1F [Compound I-403]
10 to 50	10 to 50	Cc1cccc(-c2cc(Cl)c(F)c(C(=O)NNS(=O)(=O)C3CCCCC3)c2)c1 [Compound I-404]
10 to 50	> 100	CC(C)(C)OC(=O)N1CCC(S(=O)(=O)NNC(=O)c2cc(Cl)cc(Cl)c2F)CC1 [Compound I-405]
> 100	> 100	O=C(NNS(=O)(=O)C1CCNCC1)c1cc(Cl)cc(Cl)c1F [Compound I-406]
> 100	> 100	CN1CCC(c2ccc(F)c(C(=O)NNS(=O)(=O)C3CCCCC3)c2)C1 (stereo not shown) [Compound I-407]
≤ 10	10 to 50	COCCN1CCCC(CS(=O)(=O)NNC(=O)c2cc(-c3cccc(F)c3)cc(C)c2F)C1 (stereo not shown) [Compound I-408]

IC50 (KAT5) [µM]	IC50 (KAT6A) [µM]	Structure (SMILES)
10 to 50	10 to 50	Cc1cc(-c2ccccc2)cc(C(=O)NNS(=O)(=O)CC2CCCN(C(=O)CCN(C)C)C2)c1F (stereo not shown) [Compound I-409]
10 to 50	10 to 50	O=C(NNS(=O)(=O)CC1CCCNC1)c1cc(-c2ccccc2)cc(Cl)c1F (stereo not shown) [Compound I-410]
≤ 10	10 to 50	O=C(NNS(=O)(=O)CC1CCCCC1)c1cc(Cl)cc(Cl)c1F [Compound I-411]
10 to 50	> 100	O=C(NNS(=O)(=O)CC1CCOCC1)c1cc(Cl)cc(Cl)c1F [Compound I-412]
10 to 50	> 100	O=C(NNS(=O)(=O)C1CCCCC1)c1cc(Cl)cc(Cl)c1F [Compound I-413]
> 100	> 100	O=C(NNS(=O)(=O)C1CCOCC1)c1cc(Cl)cc(Cl)c1F [Compound I-414]
10 to 50	≤ 10	CNC(=O)c1cccc(-c2cc(C)c(F)c(C(=O)NNS(=O)(=O)c3ccccc3)c2)c1 [Compound I-415]
50 to 100	50 to 100	O=C(NNS(=O)(=O)CC1CCCNC1)c1cc(-c2cccc(F)c2)cc(Cl)c1F (stereo not shown) [Compound I-416]
≤ 10	≤ 10	O=C(NNS(=O)(=O)CC1CCCN(C(=O)C2CCC2)C1)c1cc(-c2cccc(F)c2)cc(Cl)c1F (stereo not shown) [Compound I-417]
≤ 10	≤ 10	COCC(=O)N1CCCC(CS(=O)(=O)NNC(=O)c2cc(-c3cccc(F)c3)cc(Cl)c2F)C1 (stereo not shown) [Compound I-418]
≤ 10	≤ 10	O=C(NNS(=O)(=O)CC1CCCN(C(=O)C2CCOCC2)C1)c1cc(-c2ccccc2)cc(Cl)c1F (stereo not shown) [Compound I-419]
10 to 50	> 100	CCc1cc(Cl)c(F)c(C(=O)NNS(=O)(=O)C2CCCCC2)c1 [Compound I-420]
≤ 10	10 to 50	CCc1cc(Cl)c(F)c(C(=O)NNS(=O)(=O)CC2CCCCC2)c1 [Compound I-421]
> 100	> 100	CCc1cc(Cl)c(F)c(C(=O)NNS(=O)(=O)C2CCOCC2)c1 [Compound I-422]
10 to 50	> 100	CCc1cc(Cl)c(F)c(C(=O)NNS(=O)(=O)CC2CCOCC2)c1 [Compound I-423]
≤ 10	≤ 10	Cc1cc(-c2ccccc2)cc(C(=O)NNS(=O)(=O)CC2CN(C(=O)OC(C)(C)C)CCO2)c1F (stereo not shown) [Compound I-424]
